Measurements from patent US8252290B2, “Herbal composition for treatment of insomnia and other related disorders and a method of preparing the same” (Vita Green Health Products Company Limited, priority 2008, dated 2012).
Counter-ions that a name gives are not always drawn.

Legend:
Format in all cases: in vivo
[1] = system: mice; assay: Elevated Plus Maze Test; conditions: 2 mg/kg oral
Procedure: (§1) The following three tests on mice were conducted to investigate the anti-depressant and anti-anxiety activities of the herbal composition of the present invention.
(§2) In all these tests, the test item was the herbal composition as described in Table 2 in the form of a powder. The reference item was Imipramine hydrochloride manufactured by Sigma-Aldrich, USA (for forced swimming and tail suspension tests), and Diazepam tablets supplied by Tianjin Lisheng Pharmaceutical Co. Ltd, China (for elevated plus maze test). Male mice weighing 18-22 g at the start of the study were obtained from the Guangdong Medical Laboratory Animal Center, China.
(§3) At the beginning of each test, the test item was administrated at three dose levels of 69, 208, and 624 mg per kg of mouse by oral route (gastric gavage). For the Forced Swimming Test and Tail Suspension Test, Imipramine was administrated at the dose level of 20 mg per kg of mouse by oral route (gastric gavage), whereas Diazepam was administrated at the dose level of 2 mg per kg of mouse by oral route (gastric gavage). The Control group only received physiological saline orally by gastric gavage.
In this common test for assessing anxiety, the mouse is initially placed in the center of an elevated plus-shaped maze consisting of 4 arms (2 open arms & 2 enclosed arms), with its head facing one of the two open arms. The basic measure is to determine the unconditioned response of the tested mouse to a potentially dangerous environment and the preference of the tested mouse for dark, enclosed places over bright places, and exposed places. Typically, the tested mice would avoid entering into open arms due to anxiety, and mice administrated with anxiolytic […] treatments would have decreased aversion to heights and open spaces.
In this test, two batches of mice were used and in each batch, the mice were allotted at random to five groups, each consisting of ten animals.
The ratio of open arm entry is the frequency of the times the mice entering the open arms to the total frequency of entry into both open and enclosed arms (in percentages). Likewise, the ratio of time spent in open arms is the proportion of time spent by the mice in the open arms to the total times spent in both open and enclosed arms (in percentages).

[2] = system: mice; assay: Tail Suspension Test; conditions: 20 mg/kg oral
Procedure: as §1, §2, §3
When a mouse is suspended by its tail, its basic instinct first drives him to struggle, but this inescapable stress will eventually force it to develop an immobile posture. […]

[3] = system: mice; assay: Forced Swimming Test; conditions: 20 mg/kg oral
Description: After an initial period of vigorous activity, the mice adopt a characteristic immobile posture which is readily identifiable.

SMILES: CN1C(=O)CN=C(c2ccccc2)c2cc(Cl)ccc21 [Diazepam]
- Head dipping ([1]; First Batch, Control 16.2 ± 4.61): 20.67 ± 10.42 times
- Ratio of time spent in open arms ([1]; First Batch, p<0.01 vs Control 31.94 ± 10.82): 50.51 ± 10.58 %
- Ratio of open arms entry ([1]; First Batch, p<0.01 vs Control 36.16 ± 6.13): 51.27 ± 10.08 %
- Head dipping ([1]; Second Batch, p<0.01 vs Control 14.0 ± 4.64): 21.5 ± 6.15 times
- Ratio of time spent in open arms ([1]; Second Batch, p<0.01 vs Control 29.82 ± 8.88): 47.52 ± 12.35 %
- Ratio of open arms entry ([1]; Second Batch, p<0.01 vs Control 33.66 ± 7.95): 52.48 ± 9.97 %

SMILES: CN(C)CCCN1c2ccccc2CCc2ccccc21 [Imipramine, Imipramine hydrochloride]
- Time of immobility ([2]; First Batch, p<0.01 vs Control 115.89 ± 39.27): 60.08 ± 16.67 s
- Time of immobility ([2]; Second Batch, p<0.01 vs Control 100.76 ± 33.49): 52.66 ± 17.05 s
- Time of immobility ([3]; First Batch, p<0.01 vs Control 93.19 ± 31.07): 43.92 ± 17.63 s
- Time of immobility ([3]; Second Batch, p<0.01 vs Control 110.61 ± 28.03): 59.90 ± 17.40 s
